Laboratory results published in US20230255972A1, “PYRIMIDINE COMPOUND-CONTAINING COMBINATION TO BE USED IN TUMOR TREATMENT” (TAIHO PHARMACEUTICAL CO., LTD., priority 2020, published 2023).

Key:
[1] = system: MCF10A_EGFR/V769_D770insASV cells; assay: Growth inhibitory activity against MCF10A_EGFR/V769_D770insASV; format: cell-based; conditions: Homo sapiens, 72 h; 3 days; read-out: Cell growth inhibitory activity GI 50 value, MCF10A_EGFR/V769_D770insASV cell
Description: (§1) Test Example 7 Measurement of Growth Inhibitory Activity Against EGFR Overexpressing Cell Line and Exon 20 Insertion Mutant EGFR Expressing Cell Line
(§2) Growth inhibitory activity against an EGFR overexpressing cell line and an exon 20 insertion mutant EGFR expressing cell line was evaluated using MDA-MB-468 cells (ATCC) as an EGFR overexpressing human breast cancer cell line; NCI-H1975 cells (ATCC) as L858R and T790M mutant EGFR-positive human lung cancer cells; and MCF10A_EGFR cells, MCF10A_EGFR/V769_D770insASV cells, MCF10A_EGFR/D770_N771insSVD cells, and MCF10A_EGFR/H773_V774insNPH cells (Fukushima Medical University) which were cells obtained by introducing the EGFR gene (WT, […], D770_N771insSVD mutant, H773_V774insNPH mutant) into MCF10A cells as human normal mammary gland cells.
(§3) The MDA-MB-468 cells were suspended in Leibovitz's L-15 medium containing 10% inactivated fetal bovine serum. The NCI-H1975 cells were suspended in RPMI-1640 medium containing 10% inactivated fetal bovine serum. The MCF10A_EGFR cells, the MCF10A_EGFR/V769_D770insASV cells, the MCF10A_EGFR/D770_N771insSVD cells, or the MCF10A_EGFR/H773_V774insNPH cells were suspended in DMEM/Ham's F-12 medium (containing L-glutamine, phenol red, HEPES, and sodium pyruvate) containing 10 μg/mL insulin, 500 ng/mL hydrocortisone, 5 μmol/L forskolin, and 5% inactivated horse serum in terms of their final concentrations. Each cell suspension was seeded in each well of a 96-well flat-bottom plate such that the number of cells per well was 500, and was then cultured in a carbon dioxide gas-free culture vessel for the MDA-MB-468 cells and in a 5% carbon dioxide gas-containing culture vessel for the other cells at 37° C. for 1 day. The pyrimidine compound of the present invention was prepared at 1 mM in DMSO and then diluted 1/200 with a medium to prepare a 5 μM solution. […]
(§4) The cells at the start of the culture (day 0) and after the culture (day 3) were counted using CellTiter-Glo(R) 2.0 Reagent (Promega Corp.) according to the protocol recommended by the manufacturer. […]

NCI-H1975 cells = assay: Growth inhibitory activity against NCI-H1975 (L858R and T790M mutant EGFR-positive); format: cell-based; conditions: Homo sapiens, NCI-H1975, 72 h; 3 days; read-out: Cell growth inhibitory activity GI 50 value, NCI-H1975
Description: as §1, §2, §3, §4

[2] = system: MCF10A_EGFR/D770_N771insSVD cells; assay: Growth inhibitory activity against MCF10A_EGFR/D770_N771insSVD; format: cell-based; conditions: Homo sapiens, 72 h; 3 days; read-out: Cell growth inhibitory activity GI 50 value, MCF10A_EGFR/D770_N771insSVD cell
Description: as §1, §2, §3, §4

[3] = system: H1975-EGFRinsSVD cell line; assay: Antitumor effect (in vivo) on subcutaneous transplantation models of H1975-EGFRinsSVD; parameters: species or system nude mouse; conditions: Days 1-14
Description: Test Example 12 Antitumor Effect Confirmation Test (In Vivo) on Subcutaneous Transplantation Models, into which H1975-EGFRinsSVD Cell Line is Transplanted
The test compound used was the compounds of Examples 2, 11, and 12, and a 0.5% HPMC aqueous solution was used as a control. The compounds of Examples 2, 11 and 12 were orally administered at doses of 25 mg/kg/day, 25 mg/kg/day and 50 mg/kg/day, respectively.
To compare the transition of tumor growth over time by the administration of each test compound, a tumor volume (which is also referred to as “TV” below) was measured at a frequency of twice a week over time. […] A body weight change percentage is also referred to as “BWC” below.
BWCn (%)=((body weight on n^th day)−(body weight on grouping day)]/[(body weight on grouping day)×100

[4] = target: T1, human HER2 exon 20 insertion mutant (A775_G776insYVMA) protein (Homo sapiens, UniProt P04626, INS775YVMA); assay: Inhibitory action (in vitro) against HER2 exon 20 insertion mutant phosphorylation activity; format: biochemical; conditions: pre-incubated 30 minutes, ATP 200 μM, 25°C, 220 minutes; read-out: HER2ex20insYVMA inhibitory activity IC50 value
T1 construct: purchased SignalChem
T1 sequence (P04626 with tags, fused parts or gaps INS775YVMA limits assumed): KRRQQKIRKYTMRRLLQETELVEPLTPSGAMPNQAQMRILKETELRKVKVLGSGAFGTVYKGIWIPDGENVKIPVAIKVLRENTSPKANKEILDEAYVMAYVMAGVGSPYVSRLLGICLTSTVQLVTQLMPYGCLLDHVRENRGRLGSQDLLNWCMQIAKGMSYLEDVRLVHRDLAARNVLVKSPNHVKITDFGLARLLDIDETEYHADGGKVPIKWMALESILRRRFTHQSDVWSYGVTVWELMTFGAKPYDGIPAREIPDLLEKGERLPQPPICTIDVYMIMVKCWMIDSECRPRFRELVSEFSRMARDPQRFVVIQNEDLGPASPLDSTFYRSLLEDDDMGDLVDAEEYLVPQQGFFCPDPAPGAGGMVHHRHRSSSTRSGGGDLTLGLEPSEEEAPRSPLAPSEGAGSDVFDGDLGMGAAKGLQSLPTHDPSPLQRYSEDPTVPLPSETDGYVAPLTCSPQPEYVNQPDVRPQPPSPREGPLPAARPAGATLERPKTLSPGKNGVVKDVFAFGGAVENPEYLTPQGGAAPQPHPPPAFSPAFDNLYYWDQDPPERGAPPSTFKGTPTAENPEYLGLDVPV
Description: Test Example 2 Measurement of Inhibitory Action (In Vitro) Against HER2 Exon 20 Insertion Mutant (HER2ex20insYVMA) Phosphorylation Activity
In order to determine conditions for a method of measuring the in vitro inhibitory activity of a compound against HER2 exon 20 insertion mutant phosphorylation activity, as in the case of HER2, ProfilerPro Peptide 22 was used as a substrate. A purified recombinant human HER2 exon 20 insertion mutant (A775_G776insYVMA) protein was purchased from SignalChem. Upon the measurement of the inhibitory activity of the compound, first, the pyrimidine compound of the present invention was diluted stepwise with dimethyl sulfoxide (DMSO). Subsequently, the HER2 exon 20 insertion mutant protein and the pyrimidine compound of the present invention in DMSO solution (final concentration of DMSO: 5%) were added into a buffer for the kinase reaction (13.5 mM Tris (pH 7.5), 2 mM dithiothreitol, and 0.009% Tween 20), and the obtained mixture was then pre-incubated at 25° C. for 30 minutes. Thereafter, the substrate peptide (final concentration: 1 μM), manganese chloride (final concentration: 25 mM), magnesium chloride (final concentration: 20 mM), and ATP (final concentration: 200 μM) were added into the reaction mixture, and the thus obtained mixture was then incubated at 25° C. for 220 minutes, so that the kinase reaction was carried out. To the reaction solution, EDTA was added to a final concentration of 30 mM, so as to terminate the reaction. Finally, using LabChip (registered trademark) EZ Reader II (PerkinElmer), an unphosphorylated substrate peptide (S) and a phosphorylated peptide (P) were separated and detected according to microchannel capillary electrophoresis.

`C=CC(=O)N1C[C@H](n2c(C#CC)c(C(=O)N[C@H](C)c3ccccc3)c3c(N)ncnc32)C[C@@H]1C` [Example 2, 7-((3R,5S)-1-acryloyl-5-methylpyrrolidin-3-yl)-4-amino-N—((R)-1-phenylethyl)-6-(prop-1-yn-1-yl)-7H-pyrrolo[2,3-d]pyrimidine-5-carboxamide] was tested, and the GI50 [1] was 6.7 nM, the GI50 (NCI-H1975 cells) was 77 nM and the GI50 [2] was 8.2 nM. For the same compound, the “body weight reduction of 20% or more” value ([3]; 25 mg/kg/day po) was “not observed” and the IC50 [4] was under 0.3 nM.

For `C=CC(=O)N1C[C@H](n2c(C#CC3CC3)c(C(=O)N[C@H](C)c3ccccc3)c3c(N)ncnc32)C[C@@H]1C` [Example 11, 7-((3R,5S)-1-acryloyl-5-methylpyrrolidin-3-yl)-4-amino-6-(cyclopropylethynyl)-N—((R)-1-phenylethyl)-7H-pyrrolo[2,3-d]pyrimidine-5-carboxamide], the GI50 [1] was 7.3 nM, the GI50 (NCI-H1975 cells) was 87 nM and the GI50 [2] was 10 nM. For the same compound, the “body weight reduction of 20% or more” value ([3]; 25 mg/kg/day po) was “not observed” and the IC50 [4] was under 0.3 nM.

In the case of `C=CC(=O)N1C[C@H](n2c(C#CC(C)(C)C)c(C(=O)N[C@H](C)c3ccccc3)c3c(N)ncnc32)C[C@@H]1C` [Example 12, 7-((3R,5S)-1-acryloyl-5-methylpyrrolidin-3-yl)-4-amino-6-(3,3-dimethylbut-1-yn-1-yl)-N—((R)-1-phenylethyl)-7H-pyrrolo[2,3-d]pyrimidine-5-carboxamide], the GI50 [1] is reported as 24 nM, the GI50 (NCI-H1975 cells) is reported as 153 nM and the GI50 [2] is reported as 27 nM. The “body weight reduction of 20% or more” value ([3]; 50 mg/kg/day po) was “not observed” and the IC50 [4] was 0.39 nM.
